Assays:
human OATP1B1 = target: T1, human OATP1B1 (Homo sapiens, UniProt Q9Y6L6); assay: Inhibition of S‐3100‐CA uptake by OATP inhibitors, human OATP1B1; type: in vitro ADME; details: inhibitor at 100 μM
T1 construct: expressed in transfected cells; host or cells: 293FT cells
T1 sequence (Q9Y6L6 1-691): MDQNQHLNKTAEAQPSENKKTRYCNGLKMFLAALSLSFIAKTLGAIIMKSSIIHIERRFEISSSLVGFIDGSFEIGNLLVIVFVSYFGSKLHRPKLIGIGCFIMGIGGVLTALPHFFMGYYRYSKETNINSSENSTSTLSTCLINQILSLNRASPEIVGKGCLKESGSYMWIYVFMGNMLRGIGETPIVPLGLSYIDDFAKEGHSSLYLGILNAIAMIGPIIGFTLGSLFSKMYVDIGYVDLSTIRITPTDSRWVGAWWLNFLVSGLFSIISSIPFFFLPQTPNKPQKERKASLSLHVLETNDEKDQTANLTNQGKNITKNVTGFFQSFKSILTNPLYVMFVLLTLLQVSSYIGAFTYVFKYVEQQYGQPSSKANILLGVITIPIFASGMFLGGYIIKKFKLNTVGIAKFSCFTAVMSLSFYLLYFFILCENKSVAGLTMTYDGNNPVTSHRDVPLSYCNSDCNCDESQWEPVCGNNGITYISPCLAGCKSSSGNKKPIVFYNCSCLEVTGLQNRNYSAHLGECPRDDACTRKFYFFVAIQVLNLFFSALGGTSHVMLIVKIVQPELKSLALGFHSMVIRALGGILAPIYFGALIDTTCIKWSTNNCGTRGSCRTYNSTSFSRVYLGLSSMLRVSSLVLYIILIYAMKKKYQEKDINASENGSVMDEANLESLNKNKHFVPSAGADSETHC
Experimental: (§1) 293FT cells were purchased from Thermo Fisher Scientific, Inc.. The cells were grown in Dulbecco's modified Eagle medium (supplemented with 4.5 g/L glucose and 2 mM L‐glutamine) at 37°C, 5% CO2, and 95% humidity. The cells were passaged 3 times per week by harvesting cells using trypsin and plating at a density of 1.0 × 10^4 cells/cm^2 in a 10 cm cell culture plate for maintenance culture. The 293FT cells were detached using trypsin and re‐seeded at a density of 2.5 × 10^4 cells/cm^2 in BioCoat™ Collagen I 6‐well plates (Corning Inc.) for transfection and then treated with 1.2 μg of plasmid vector and 3.2 μl of Lipofectamine™ 2000 Transfection Reagent (Thermo Fisher Scientific, Inc.) according to the manufacturer's instructions. After a 3‐h treatment, the transfection medium was replaced with a fresh cell culture medium and incubated at 37°C with 95% humidity and 5% CO2 until ready for the assay.
(§2) Transport experiments were conducted approximately 24 h post‐transfection. […] From the lysate, 1.0 ml was transferred to a vial containing 10 ml of Emulsifier Scintillator Plus to measure the radioactivity in the LSC. The protein concentration of the cell lysate was also measured using a Pierce™ BCA Protein Assay Kit (Thermo Fisher Scientific, Inc.), which was used to normalize, according to the cell number, the radioactivity in the cell lysate extract. […]

human OATP1B3 = target: T2, human OATP1B3 (Homo sapiens, UniProt Q9NPD5); assay: Inhibition of S‐3100‐CA uptake by OATP inhibitors, human OATP1B3; type: in vitro ADME; details: inhibitor at 100 μM
T2 construct: expressed in transfected cells; host or cells: 293FT cells
T2 sequence (Q9NPD5 1-702): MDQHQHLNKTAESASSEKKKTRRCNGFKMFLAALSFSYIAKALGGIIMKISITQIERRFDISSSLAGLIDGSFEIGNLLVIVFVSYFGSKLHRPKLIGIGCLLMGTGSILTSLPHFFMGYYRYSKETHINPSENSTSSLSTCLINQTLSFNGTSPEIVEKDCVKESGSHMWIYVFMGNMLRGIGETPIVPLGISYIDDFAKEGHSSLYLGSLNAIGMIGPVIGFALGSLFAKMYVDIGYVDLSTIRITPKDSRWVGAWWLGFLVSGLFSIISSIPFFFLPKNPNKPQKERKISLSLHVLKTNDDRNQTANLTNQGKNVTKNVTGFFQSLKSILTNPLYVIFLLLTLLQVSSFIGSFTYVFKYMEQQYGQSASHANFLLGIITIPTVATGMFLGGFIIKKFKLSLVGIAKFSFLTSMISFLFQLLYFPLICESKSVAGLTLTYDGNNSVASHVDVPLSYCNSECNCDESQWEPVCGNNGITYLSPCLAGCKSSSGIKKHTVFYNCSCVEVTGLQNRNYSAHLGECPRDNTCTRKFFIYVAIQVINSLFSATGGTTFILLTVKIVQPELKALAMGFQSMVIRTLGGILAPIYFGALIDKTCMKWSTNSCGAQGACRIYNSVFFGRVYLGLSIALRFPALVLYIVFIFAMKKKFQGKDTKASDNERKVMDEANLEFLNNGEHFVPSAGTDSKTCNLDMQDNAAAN
Experimental: as §1, §2

[1] = design: method as in PMID 34908893; details: mice; 90‐day; cited from earlier work

Row | Structure (SMILES) | Uptake of S‐3100‐CA, % of that by vehicle‐treated cells (human OATP1B1) | Uptake of S‐3100‐CA, % of that by vehicle‐treated cells (human OATP1B3) | Hepatocyte injury [1]
1 | CO[C@H]1/C=C/O[C@@]2(C)Oc3c(C)c(O)c4c(O)c(c(/C=N/N5CCN(C)CC5)c(O)c4c3C2=O)NC(=O)/C(C)=C\C=C\[C@H](C)[C@H](O)[C@@H](C)[C@@H](O)[C@@H](C)[C@H](OC(C)=O)[C@@H]1C [RIF, Rifampicin] | less than 40% | less than 40% | 
2 | CCOC(=O)COc1ncccc1Oc1cc(-n2c(=O)cc(C(F)(F)F)n(C)c2=O)c(F)cc1Cl [Epyrifenacil, ethyl[(3‐{2‐chloro‐4‐fluoro‐5‐[3‐methyl‐2,6‐dioxo‐4‐(trifluoromethyl)‐3,6‐dihydropyrimidin‐1(2H)‐yl]phenoxy}pyridin‐2‐yl)oxy]acetate] |  |  | produced hepatocyte injury
